In patent US9302999B2, “Substituted triazoles as herbicides” (E. I. DU PONT DE NEMOURS AND COMPANY, priority 2012, dated 2016):
Read-outs that look alike come from different tables or passages of the source.

How the values were obtained:
Type in all cases: in vivo
[1] = system: barnyardgrass (Echinochloa crus-galli); test: Test C flooded paddy test: barnyardgrass; details: scale 0 to 100 (0 no effect, 100 complete control); for pest or weed control at 62 g/ha / pest or weed control at 250 g/ha / pest or weed control at 125 g/ha: Echinochloa crus-galli, read-out: Plant response rating, Barnyardgrass
Summary of the method: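 2-leaf stage plants; pots flooded 3 cm above soil; compound applied into paddy water, depth maintained. Greenhouse 13–15 d. Visual rating vs controls, 0–100 (0 = no effect, 100 = complete control); dash = no result.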

[2] = system: bluegrass (annual bluegrass, Poa annua); test: Test D pre-/postemergence: bluegrass
From the text: (§1) Seeds of plant species selected from bluegrass (annual bluegrass, Poa annua), blackgrass (Alopecurus myosuroides), canarygrass (Phalaris minor), chickweed (common chickweed, Stellaria media), galium (catchweed bedstraw, Galium aparine), bromegrass, downy (downy bromegrass, Bromus tectorum), field poppy (Papaver rhoeas), field violet (Viola arvensis), foxtail, green (green foxtail, Setaria viridis), deadnettle (henbit deadnettle, Lamium amplexicaule), ryegrass, Italian (Italian ryegrass, Lolium multiflorum), kochia (Kochia scoparia), lambsquarters (Chenopodium album), oilseed rape (Brassica napus), pigweed (Amaranthus retroflexus), Russian thistle (Salsola iberica), chamomile (scentless chamomile, Matricaria inodora), speedwell (bird's-eye speedwell, Veronica persica), barley, spring (spring barley, Hordeum vulgare), wheat, spring (spring wheat, Triticum aestivum), buckwheat, wild (wild buckwheat, Polygonum convolvulus), mustard, wild (wild mustard, Sinapis arvensis), oat, wild (wild oat, Avena fatua), radish, wild (wild radish, Raphanus raphanistrum), windgrass (Apera spica-venti), barley, winter (winter barley, Hordeum vulgare), and wheat, winter (winter wheat, Triticum aestivum) were planted into a silt loam soil and treated preemergence with test chemicals formulated in a non-phytotoxic solvent mixture which included a surfactant. At the same time, these same crop and weed species were planted in pots containing the planting medium comprising spaghnum peat moss, vermiculite, wetting agent and starter nutrients and treated with postemergence applications of the test chemicals formulated in the same manner. Plants ranged in height from 2 to 18 cm (1- to 4-leaf stage).
(§2) Treated plants and controls were maintained in a controlled growth environment for 14 to 21 days after which time all species were compared to controls and visually evaluated. Plant response ratings, summarized in Table D, are based on a scale of 0 to 100 where 0 is no effect and 100 is complete control. A dash (-) response means no test result.

[3] = system: oilseed rape (Brassica napus); test: Test D pre-/postemergence: oilseed rape
From the text: as §1, §2

[4] = system: radish, wild (wild radish, Raphanus raphanistrum); test: Test D pre-/postemergence: radish, wild
From the text: as §1, §2

[5] = Flood (flooded paddy test), 125 g ai/ha, visual rating after 13 to 15 days
[6] = Flood (flooded paddy test), 250 g ai/ha, visual rating after 13 to 15 days
[7] = Postemergence, 31 g ai/ha, scale 0 to 100 (0 no effect, 100 complete control)
[8] = Postemergence, 62 g ai/ha, scale 0 to 100 (0 no effect, 100 complete control)
[9] = Postemergence, 125 g ai/ha, scale 0 to 100, 0 no effect, 100 complete control
[10] = Postemergence, 250 g ai/ha, scale 0 to 100 (0 no effect, 100 complete control)
[11] = Postemergence, 16 g ai/ha, scale 0 to 100
[12] = Preemergence, 62 g ai/ha, scale 0 to 100
[13] = Preemergence, 125 g ai/ha, scale 0 to 100
[14] = Preemergence, 250 g ai/ha, scale 0 to 100
[15] = Preemergence, 31 g ai/ha, scale 0 to 100, 0 no effect, 100 complete control
[16] = Preemergence, 16 g ai/ha, scale 0 to 100, 0 no effect, 100 complete control

Cc1nn(-c2ccc(C(F)(F)F)cn2)nc1Cc1cccc(C(F)(F)F)c1 [Compound 106]
Plant response rating, Barnyardgrass [1, 5]: 20
Plant response rating, Barnyardgrass [1, 6]: 40
Plant response rating, Barnyardgrass ([1]; Flood, 31 g ai/ha): 0
Plant response rating, Barnyardgrass ([1]; Flood, 62 g ai/ha): 0
Plant response rating: Bluegrass [2, 7]: 10
Plant response rating: Bluegrass [2, 8]: 10
Plant response rating: Bluegrass [2, 9]: 15
Plant response rating: Bluegrass [2, 10]: 30
Plant response rating, Bluegrass [2, 11]: 10
Plant response rating, Bluegrass [2, 12]: 0
Plant response rating, Bluegrass [2, 13]: 0
Plant response rating, Bluegrass [2, 14]: 0
Plant response rating: Oilseed Rape [3, 7]: 10
Plant response rating: Oilseed Rape [3, 8]: 10
Plant response rating: Oilseed Rape [3, 9]: 80
Plant response rating: Oilseed Rape [3, 10]: 95
Plant response rating, Oilseed Rape [3, 11]: 10
Plant response rating, Oilseed Rape [3, 15]: 10
Plant response rating, Oilseed Rape [3, 12]: 10
Plant response rating, Oilseed Rape [3, 13]: 10
Plant response rating, Oilseed Rape [3, 14]: 20
Plant response rating: Radish, Wild [4, 7]: 100
Plant response rating: Radish, Wild [4, 8]: 100
Plant response rating: Radish, Wild [4, 9]: 100
Plant response rating: Radish, Wild [4, 10]: 100
Plant response rating, Radish, Wild [4, 11]: 100
Plant response rating, Radish, Wild [4, 15]: 0
Plant response rating, Radish, Wild [4, 12]: 30
Plant response rating, Radish, Wild [4, 13]: 30
Plant response rating, Radish, Wild [4, 14]: 30

Cc1nn(-c2ccc(C(F)(F)F)cc2)nc1Oc1csc(C(F)(F)F)c1 [Compound 1, 4-methyl-2-[4-(trifluoromethyl)phenyl]-5-[[5-(trifluoromethyl)-3-thienyl]oxy]-2H-1,2,3-triazole]
pest or weed control at 62 g/ha ([1]; Flood (flooded paddy test), 62 g ai/ha, visual rating after 13 to 15 days): 0%
pest or weed control at 250 g/ha [1, 6]: 0%

FCc1nn(-c2ccc(C(F)(F)F)cc2)nc1Oc1cccc(OC(F)(F)F)c1 [Compound 116, 4-(fluoromethyl)-5-[3-(trifluoromethoxy)phenoxy]-2-[4-(trifluoromethyl)phenyl]-2H-1,2,3-triazole]
pest or weed control at 125 g/ha [1, 5]: 40%
pest or weed control at 250 g/ha [1, 6]: 60%
pest or weed control at 62 g/ha ([1]; Flood, 62 g ai/ha): 35%

COCc1nn(-c2ccc(C(F)(F)F)cc2)nc1Oc1cccc(OC(F)(F)F)c1 [Compound 115, 4-(methoxymethyl)-5-[3-(trifluoromethoxy)phenoxy]-2-[4-(trifluoromethyl)phenyl]-2H-1,2,3-triazole]
pest or weed control at 125 g/ha [1, 5]: 45%
pest or weed control at 250 g/ha [1, 6]: 60%
pest or weed control at 62 g/ha ([1]; Flood, 62 g ai/ha): 40%

COc1nn(-c2ccc(C(F)(F)F)cc2)nc1Cc1ccnc(C(F)F)c1 [Compound 138]
Plant response rating: Bluegrass [2, 7]: 30
Plant response rating: Bluegrass [2, 8]: 50
Plant response rating: Bluegrass [2, 9]: 70
Plant response rating: Bluegrass [2, 10]: 85
Plant response rating, Bluegrass [2, 11]: 20
Plant response rating: Oilseed Rape [3, 7]: 95
Plant response rating: Oilseed Rape [3, 8]: 100
Plant response rating: Oilseed Rape [3, 9]: 100
Plant response rating: Oilseed Rape [3, 10]: 100
Plant response rating, Oilseed Rape [3, 11]: 85
Plant response rating: Radish, Wild [4, 7]: 80
Plant response rating: Radish, Wild [4, 8]: 95
Plant response rating: Radish, Wild [4, 9]: 100
Plant response rating: Radish, Wild [4, 10]: 100
Plant response rating, Radish, Wild [4, 11]: 80

CCOc1nn(-c2ccc(F)cc2)nc1Cc1ccnc(C(F)(F)F)c1 [Compound 196, 4-[[5-ethoxy-2-(4-fluorophenyl)-2H-1,2,3-triazol-4-yl]methyl]-2-(trifluoromethyl)pyridine]
Plant response rating: Bluegrass [2, 7]: 70
Plant response rating: Bluegrass [2, 8]: 75
Plant response rating: Bluegrass [2, 9]: 80
Plant response rating, Bluegrass [2, 11]: 60
Plant response rating, Bluegrass [2, 16]: 5
Plant response rating, Bluegrass [2, 15]: 35
Plant response rating, Bluegrass [2, 12]: 75
Plant response rating, Bluegrass [2, 13]: 100
Plant response rating: Oilseed Rape [3, 7]: 100
Plant response rating: Oilseed Rape [3, 8]: 100
Plant response rating: Oilseed Rape [3, 9]: 100
Plant response rating, Oilseed Rape [3, 11]: 80
Plant response rating, Oilseed Rape [3, 16]: 5
Plant response rating, Oilseed Rape [3, 15]: 15
Plant response rating, Oilseed Rape [3, 12]: 100
Plant response rating, Oilseed Rape [3, 13]: 100
Plant response rating: Radish, Wild [4, 7]: 100
Plant response rating: Radish, Wild [4, 8]: 100
Plant response rating: Radish, Wild [4, 9]: 100
Plant response rating, Radish, Wild [4, 11]: 65
Plant response rating, Radish, Wild [4, 16]: 50
Plant response rating, Radish, Wild [4, 15]: 20
Plant response rating, Radish, Wild [4, 12]: 70
Plant response rating, Radish, Wild [4, 13]: 100

Cc1nn(-c2ccc(C(F)(F)F)c(F)c2)nc1Oc1ccnc(C(F)(F)F)c1 [Compound 148]
Plant response rating: Bluegrass [2, 7]: 15
Plant response rating: Bluegrass [2, 8]: 25
Plant response rating: Bluegrass [2, 9]: 70
Plant response rating, Bluegrass [2, 11]: 5
Plant response rating, Bluegrass [2, 16]: 0
Plant response rating, Bluegrass [2, 15]: 15
Plant response rating, Bluegrass [2, 12]: 60
Plant response rating, Bluegrass [2, 13]: 50
Plant response rating: Oilseed Rape [3, 7]: 35
Plant response rating: Oilseed Rape [3, 8]: 80
Plant response rating: Oilseed Rape [3, 9]: 100
Plant response rating, Oilseed Rape [3, 11]: 30
Plant response rating, Oilseed Rape [3, 16]: 5
Plant response rating, Oilseed Rape [3, 15]: 0
Plant response rating, Oilseed Rape [3, 12]: 10
Plant response rating, Oilseed Rape [3, 13]: 20
Plant response rating: Radish, Wild [4, 7]: 100
Plant response rating: Radish, Wild [4, 8]: 100
Plant response rating: Radish, Wild [4, 9]: 100
Plant response rating, Radish, Wild [4, 11]: 90
Plant response rating, Radish, Wild [4, 16]: 10
Plant response rating, Radish, Wild [4, 15]: 20
Plant response rating, Radish, Wild [4, 12]: 100
Plant response rating, Radish, Wild [4, 13]: 100
